Tests used:
[1] = tested on: benchmark bacterial strain having an esterase activity; test: Microbial decontamination efficiency of cleaning substances on contaminated plastic surfaces (esterase activity of swab); assay type: cell-based; settings: remaining esterase activity after cleaning the plastic surface with an impregnated wipe; optical density at 414 nm; not cleaned: 3.474
Description: For this purpose, a benchmark bacterial strain having an esterase activity (isolated by traditional microbiological methods from samples collected from human foreheads) has been used to artificially contaminated surfaces. This strain has been prepared by an overnight incubation at 37° C. in LB medium. 200 μL of this cell preparation, corresponding to 6.107 cfu have been spread on five plastic surfaces and allowed to dry completely.
Samples have then been collected onto the different plastic surfaces using swabs beforehand impregnated with PBS containing 0.1% w/v of Triton X100. 16 μL of the transformable substrate (2-hydroxy-4-p-nitrophenoxy-butyl hexanoate 20 mM in DMSO) have been mixed with 184 μL of aqueous PBS buffer 0.1M pH7.3. The swab has been plunged in this mix and incubated for 1 h at 37° C. The swab has then been removed from the reaction mixture and 100 μL have been transferred to another vial. 4 μL of bovine serum albumin 50 mg/mL in water, 40 μL NaIO4 100 mM in water and 40 μL Na2CO3 200 mM in water have been added. The reaction mixture has been incubated for 10 min at room temperature and centrifuged for 15 min at 16000 g. The activity has then been quantified by measuring optical density at 414 nm.

[2] = tested on: Staphylococcus epidermidis (DSM 3269); settings: 0.3% in CSL, 30° C., reduction from 10^7, 24 h
Description: (§1) An EuAB test for antimicrobial activity was performed with Corynebacterium xerosis (DSM 20743), Staphylococcus epidermidis (DSM 3269) and Candida albicans (ATCC 10231). As culture medium CSL (Casein peptone-soybean meal peptone solution), CSA (Casein peptone-soybean meal pepton agar) and Sabouraud-glucose broth/agar was used.
(§2) As dilution liquid NaCl-peptone buffer solution with inactivator (3% Tween 80, 0.3% lecithin, 0.1% histidine and 0.5% Na thiosulfate) was used. Polyglyceryl-3 caprylate was tested in 0.3% (in CSL) concentration. The test solution was prepared one day before investigation. For this, 100 ml of CSL was heated to 60° C. in a water bath. 0.3 g was weighed into 100 ml of CSL at 60° C. The preparations were shaken vigorously by hand and left overnight at 30° C. in an incubator. Corynebacterium xerosis was cultivated over 3 to 4 days. Other microbes were isolated in broth or by elutriation. For each test microbe, 20 ml of each test solution were introduced into sterile 50 ml brown glass bottles with glass beads and contaminated with 0.2 ml of microbe suspension. As controls, 20 ml of CSL were carried over per test microbe without sample.
(§3) The contaminated samples were shaken for 3 min on a shaking machine and kept in an incubator at 30° C. until removed. At the removal points (1, 2, 3, 24 and 48 hours) 1 ml was taken from each preparation and transferred in each case to 9 ml of NaCl-peptone buffer solution with inactivator and the colony number was determined. The 0 hour values given were the colony numbers of the test microbe suspension used taking into consideration the 10^−2 dilution upon sample contamination.

[3] = tested on: Candida albicans (ATCC 10231); settings: 0.3% in CSL, 30° C., reduction from 10^7, 24 h
Description: as §1, §2, §3

[4] = tested on: Corynebacterium xerosis (DSM 20743); settings: 0.3% in CSL, 30° C., reduction from 10^7, 24 h
Description: as §1, §2, §3

Row | Molecule | activity [1] | bacteria count (colony number) after 24 h [2] | bacteria count (colony number) after 24 h [3] | bacteria count (colony number) after 24 h [4]
1 | CCO [70% ethanol, ethanol] | 0.195 |  |  | 
2 | O [water] | 0.100 |  |  | 
3 | polyglyceryl-3 caprylate |  | less than 270 | less than 270 | less than 270
